Earlier results on one compound are cited in patent US20090175967A1, “METHODS FOR TREATMENT OF INTESTINAL CARCINOGENESIS WITH RICE BRAN” (priority 2008, published 2009).

The subject of this series is Apc^Min mice.

SMILES strings stand for the structures.

Regarding `COc1cc(/C=C/C(=O)CC(=O)/C=C/c2ccc(O)c(OC)c2)ccc1O` [curcumin], the adenoma development result is given as “compromised adenoma development”.
